The subject of test [1] is Min6 cells. Nature of the test: Gene expression in Min6 cells by real-time PCR. It counts as cell-based, mouse. How it is done:
Human pancreatic islets were purified from seven normoglycemic subjects using the modified Ricordi method (Ricordi et al., 1988) as previously described (Gunton et al., 2005). The subjects are described in (Gunton et al., 2005), and were matched for age and body-mass-index. Gene expression was measured by real-time-PCR and was performed in a two-step reaction using the Invitrogen RT-for-PCR kit. The second step was performed in a fluorescent temperature cycler (ABI-Prism 7700 Sequence Detection System, Applied Biosystems) with LightCycler-RNA Master SYBR-Green-I (Roche, Mannheim, Germany) and specific primers for each of the genes (sequences available on request). Every plate included a control gene (TATA-box binding protein/TBP) for every subject. Results were analysed by unpaired t-test.
In separate experiments, treated cells were lysed, and RNA isolated for real-time-PCR.
Following treatment with HIF-1α RNAi, the present inventors measured expression of genes in the maturity onset diabetes of the young (MODY) family, insulin-signalling and glucose-uptake and glycolytic genes by real-time PCR. […] In the insulin signaling pathway, HIF-1α knockdown decreased insulin-receptor substrate (IRS)-2 mRNA (FIG. 3E).
Min6 cells were treated with DFO at the doses indicated for 4 hours.

The test system of test [2] is diabetic recipient mouse. Kind of test: Mouse islet transplantation into streptozotocin-diabetic mice. Particulars: mouse islets cultured with 125 μM DFO 2 hours before transplantation, 1 donor:1 recipient, followed 28 days. The test is classed as in vivo. Here is the method: Islets were isolated from control mice and cultured with either control media or control media plus 125 μM DFO under normoxic conditions or in control media under hypoxic conditions (5% O2) for 2 hours before transplantation. All the islets from 1 donor mouse were transplanted into 1 recipient mouse which had been rendered diabetic (random glucose>22 mM) by streptozotocin treatment.
Transplant recipients were followed for 28 days, at which time nephrectomy was performed to confirm recurrence of diabetes.

In test [3] the test system is human islets. Nature of the test: Insulin release of human islets at low and high glucose. The test is classed as cell-based. As to conditions: DFO 4 hours, low (5 mM) and high (11 mM) glucose. Here is the method: The present inventors were interested to determine whether DFO was beneficial for function of human islets. Islets were isolated from people with normal glucose tolerance and treated with control media or media supplemented with DFO for 4 hours, and insulin release subsequently measured at low (5 mM) and high (11 mM) glucose concentrations.

In test [4] the test system is Min6 cells. Kind of test: Glucose-stimulated insulin secretion (GSIS) in Min6 cells. The test is classed as cell-based, mouse. Particulars: DFO treatment.
Test [5] relates to Min6 cells. Nature of the test: Measurement of intracellular ATP concentrations. Particulars: DFO treatment. It counts as cell-based, mouse. How it is done:
ATP concentrations were measured in islets and in Min6 cells following exposure to low (1 mM) or high glucose (25 mM) for 30 minutes. At the 30 minute timepoint, cells were placed on ice, washed twice in ice-cold PBS and lysed and ATP was measured using a kit purchased from Roche, according to the manufacturer's instructions.

The subject of test [6] is diabetic SCID mice. Kind of test: Minimal mass human islet transplantation into diabetic SCID mice. It counts as in vivo, mouse. Particulars: human islets. Here is the method:
Human pancreatic islets were isolated from normal glucose tolerant donors as previously described (Gunton et al., 2005). Islets were transplanted under the left kidney capsule of SCID mice which had been rendered diabetic by injection of Alloxan at 95 mg/kg intravenously. Islets were transplanted in adequate mass (2000 IEQ per mouse), or minimal mass (600 IEQ per mouse). In each of the islet isolations, 2000 control-treated IEQ per mouse was adequate to cure diabetes. As expected, 600 control-treated IEQ per mouse was not adequate to control glucose at day 28 post-transplant in any mouse. […]

“Also recorded” adds a separate entry of the source.

Regarding `CC(=O)N(O)CCCCCNC(=O)CCC(=O)N(O)CCCCCNC(=O)CCC(=O)N(O)CCCCCN` [DFO, desferrioxamine], in test [1] (DFO 4 hours), the “expression of ARNT” value is listed as “did not alter expression of the house-keeping genes TATA-box binding protein (TBP) or transthyretin, or (B) increase expression of ARNT”; the “expression of housekeeping genes TATA-box binding protein (TBP) and transthyretin” value is given as “did not increase expression; also recorded: did not alter expression”; the “expression of mRNAs for Akt2, GLUT1, GLUT2, HNF4α, IRS2 and phosphoglucomutase (PGM)” value was “dose-dependently increased expression; also recorded: significantly increased expression”. Further, in test [1] (DFO 4 hours (data not shown)), the “expression of HNF1α, HNF1β and insulin receptor” value is “did not alter”. Moreover, the “HIF-1α mRNA expression” value in test [1] (highest dose of DFO, 4 hours) is “small but significant increase; also recorded: showed increased expression”. Also, the “average glucose after transplantation” value in test [2] was found to be 11.4 mM. Further, in test [3], the “insulin release (GSIS) of human islets” value is on record as “markedly increased; also recorded: markedly improved GSIS”. In test [4], the “glucose stimulated insulin secretion (GSIS)” value is recorded as “substantial increase in GSIS”. The ATP generation entry in test [5] was “increased ATP generation; also recorded: increased ATP concentrations”. Besides, the “success rate following transplant of 600 IEQ” value in test [6] (DFO 125 μM for 4 hours pre-transplantation, day 28) is 75%. Moreover, the “cure of diabetes following transplantation of 600 IEQ” value in test [6] (DFO 125 μmol/L prior to transplantation, n=8) is 75%.

The record behind these values is patent US8518419B2, “Method of treating diabetes” (Garvan Institute of Medical Research, priority 2006, dated 2013).
